Entries after “also recorded” stand apart in the source; their conditions may differ.
Experiments:
[1] = test system: gastrointestinal tract; assay: Aminosterol Induced GI Response after oral capsule in a human; type: in vivo
Description: Gelatin capsules were prepared for oral administration. Capsules were coated in shellac to prevent their release within the stomach. Furthermore, because squalamine and related aminosterols have antibiotic activity, enteric coating prevents the drug from altering the microbial populations of the stomach. […] Squalamine dilactate powder, 99% pure, or 1436 hydrochloride, 99% pure, was added manually into either Size 0 (for the 200 mg dose) or Size 1 (for the 100 mg dose) gelatin capsules. No excipient was added. The capsules were coated twice in 5% shellac (80% acetone/20% ethanol) and dried before use.
200 mg of squalamine (lactate salt, excipient free) in a coated gelatin capsule was administered orally to a human in the morning on an empty stomach, with water. Squalamine was synthesized as described in Zasloff et al 2011. Within 2 hours nausea was experienced, lasting about 30 minutes. At 2.5 hours, increased peristalsis (“rumbling gut”) was experienced, lasting several minutes. At about 3 hours, a clear watery discharge of about 200 ml was passed rectally. A second episode occurred at 3.2 hours. Following this episode, bowel sounds quieted. No nausea or discomfort was subsequently experienced. Appetite was near normal. Despite normal feeding, feces were not passed for 2.5 days over which time no discomfort was experienced. The first feces passed after this quiescent period was soft and relatively small considering the intake of food and the time interval. Usual bowel functions resumed by about 4 days after squalamine administration.
200 mg of 1436 (HCl salt, excipients free) in a gelatin capsule was administered orally to a human in the morning on an empty stomach, with water. […] At 2 hours, about 100 ml of clear watery diarrhea, recurring at 2.75 hours, 3 hours, 3.25 hours, and 4 hours, with progressively lesser volumes of liquid discharged. First bowel movement was passed at 3.5 days, of normal consistency. The subject experienced no abdominal discomfort, bloating, etc over this period. Usual bowel functions resumed by about 4.5 days after administration of Aminosterol 1436. […]
100 mg of squalamine was orally administered in a capsule as in the first example. […] A period of “bowel quiet” was induced, however, that lasted 2 days, after which normally formed feces were passed.

[2] = test system: GLP-1; assay: GLP-1 release into the blood stream after oral squalamine and lipid/carbohydrate meal (ELISA); type: in vivo, human
Description: Enteroendocrine cells, which contain entreric hormones, are known to respond to a variety of stimuli they contact in the intestinal lumen, and release hormones into the submucosa and subsequently into the bloodstream. In particular, GLP-1, the product of the L-cell, is known to have motility effects on the small intestine that resemble those observed after oral administration of squalamine. In this example, a lipid/carbohydrate meal was administered which is known to provoke the release of GLP-1 into the bloodstream. The GLP-1 response of the GI tract to the meal was compared in the presence or absence of squalamine, with blood levels of GLP-1 measured using an ELISA based immunoassay.
• 1. Subject (BMI: […], no medical illness) was fasted overnight • 2. IV catheter 18 gauge implanted in R […] fossa • 3. Blood samples drawn at 9:30 A, 11 A, 11:30 A, 12:30 P, 1:30 P, 2 P, 2:30, 3, 3:30, 4:30, 5:30 • 4. Empty capsule and water at 10:30 A • 5. Lipid/carbohydrate meal (2 slices of white bread, each with 5.5 gms butter) at 2 P • 6. Blood samples: 2 ml into Becton-Dickenson Protease-inhibited Biomarker tubes; 3 ml into standard red top blood collection tubes. • 7. All samples were immediately spun at 3000 rpm×15 and serum or plasma aliquotted into 1.5 ml eppendorfs and then stored at −80° C. Squalamine Response • 1. Subject rested 3 days and re-evaluated 4 days after the Control response • 2. Fasted overnight • 3. IV catheter implanted • 4. Samples drawn at 10, 11, 11:30, 12:30, 1:30, 2:30, 3, 3:30, 4:30, 5:30 • 5. Squalamine capsule, 200 mg at 10:30 A • 6. Bread and butter, 2 P • 7. Blood samples collected and processed as in the Control study
GLP-1 analyses (Total immunoreactive GLP-1): A Millipore ELISA kit was used (Cat #EZGLP1T-36K).

[3] = test system: pancreatic adenocarcinoma; assay: Oral squalamine in Stage 4b pancreatic cancer, single subject; type: in vivo, human
Description: A person presented with abdominal discomfort, weight loss, and malaise. After considerable medical consultations a diagnosis of pancreatic adenocarcinoma was made. The subject was treated with chemotherapy and experienced a severe adverse reaction, which included ascites and pleural effusion. […] In August 2013, the subject was evaluated for a clinical trial at TGEN in Arizona, but not admitted due to the extensive cancer evident in the pancreas, liver, and nodes.
In late August 2013, the subject was begun on 50 mg/day, then increased to 100 mg/day after a week. The subject began once monthly cycles of cisplatin and 5-FU. […] The overall level of performance of the individual continues to improve, but the ascites and pleural effusions persist. […] All concurrent chemotherapy has stopped. Squalamine treatment continues.

[4] = test system: embryonal rhabdomyosarcoma; assay: Oral squalamine in sarcoma with dose finding by GI response, single subject; type: in vivo, human
Description: A person was seen because of the recurrence of an embryonal rhabdomyosarcoma. They noticed a mass in their left groin. […] The mass was surgically excised. The patient was then treated with a cocktail of chemotherapeutic agents. Several months later the mass was seen to recur in the left groin. The mass was again excised. Several months later, a tumor was gain noted in the groin, with a large mass present in the left lung.
At 300 mg daily, a clear effect was noted, that being mild nausea, 2 hours after dosing, followed by a bowel movement later in the day.

[5] = single 100 mg oral capsule, empty stomach
[6] = single 200 mg oral capsule, morning, empty stomach, one human

## squalamine
[1]; 200 mg oral capsule in the evening following a large meal, overnight and following morning
  gastrointestinal response: No gastrointestinal response
[1]; following a single 200 mg oral dose
  duration of the Aminosterol-Induced GI Response: about 4 days
[1]; following the larger squalamine dose (for example 200 mg)
  period of bowel quiet after the watery discharge (Phase III): 2 to 3 days
[1]; [5]
  duration of bowel quiet: 2 days
  nausea and watery diarrhea: Neither nausea, nor watery diarrhea was experienced
[1]; [6]
  duration of nausea: about 30 minutes
  first clear watery rectal discharge / diarrhea, time after dosing: about 3 hours
  further episodes of watery discharge, time after dosing: 3.2 h
  increased peristalsis, time after dosing: 2.5 h
  nausea, time of onset after dosing: ≤ 2 h
  usual bowel functions resumed, time after administration: about 4 days
  volume of first clear watery discharge: about 200 ml
[1]; single 200 mg oral capsule, morning, empty stomach, normal behavior about 1 passage every 24 hours
  time without feces / to first bowel movement after dosing: 2.5 days
[1]; single 200 mg oral dose, versus normal about 1 passage every 24 hours
  estimated reduction of small intestinal motility: 2.5 fold
[2]; 200 mg capsule at 10:30 A, light headedness 11 A-12:15, nausea 1:45, diarrhea 2 P, 2:20, 2:36, 3:15
  Squalamine Response: Clinical: Episodes of light headedness; also recorded: Episode of mild nausea; also recorded: Passage of watery diarrhea
[2]; 200 mg oral versus empty capsule, same subject
  effect on the release of GLP-1 from the small intestine: No significant effect
[2]; blood sample at 1:30, 200 mg capsule at 10:30 A, meal at 2 P
  GLP-1 blood level: 9 pM
[2]; blood sample at 2:30, 200 mg capsule at 10:30 A, meal at 2 P
  GLP-1 blood level: 8 pM
[2]; blood sample at 3:00, 200 mg capsule at 10:30 A, meal at 2 P
  GLP-1 blood level: 8 pM
[2]; blood sample at 3:30, 200 mg capsule at 10:30 A, meal at 2 P
  GLP-1 blood level: 6 pM
[2]; blood sample at 4:30, 200 mg capsule at 10:30 A, meal at 2 P
  GLP-1 blood level: 5 pM
[2]; blood sample at 5:30, 200 mg capsule at 10:30 A, meal at 2 P
  GLP-1 blood level: 3 pM
[2]; blood sample at 10 (before 200 mg capsule at 10:30 A), total immunoreactive GLP-1
  GLP-1 blood level: 6 pM
[2]; blood sample at 11:30, 200 mg capsule at 10:30 A, meal at 2 P
  GLP-1 blood level: 4 pM
[2]; blood sample at 11, 200 mg capsule at 10:30 A, meal at 2 P
  GLP-1 blood level: 5 pM
[2]; blood sample at 12:30, 200 mg capsule at 10:30 A, meal at 2 P
  GLP-1 blood level: 10 pM
[3]; 100 mg/day with monthly cisplatin and 5-FU, February 2014
  PET/CT scan: complete loss of all PET active masses
[3]; 100 mg/day, ongoing
  cytology of the peritoneal fluid: remains negative for abnormal cells
[3]; 50 then 100 mg/day from late August 2013, with monthly cisplatin and 5-FU, early December 2013
  PET/CT scan: dramatic reduction in PET intensity of all previously active cancer
[4]; 100 mg capsules for several days
  GI response: without any noticeable GI symptoms
[4]; 200 mg daily
  GI response: without any GI response
[4]; 300 mg daily
  GI response: mild nausea
  mild nausea, time after dosing: 2 h
[4]; 2 months post surgery, dosing continued
  tumor status: no evidence of pulmonary tumors nor evidence of recurrence of any soft tissue tumor in the groin
[4]; 3 weeks after initiation of dosing
  finding in surgically removed lung tumor: massive internal hemorrhage due to blood vessel damage

Reference: US10975116B2, “Methods of treating and preventing gastrointestinal motility disorders using aminosterols” (Enterin, Inc., priority 2013, dated 2021)
